Data: patent US7135475B2, “Amide substituted xanthine derivatives” (Hoffmann-La Roche Inc., priority 2002, dated 2006)

Target: T1, recombinant human cytosolic PEPCK (Homo sapiens, UniProt P35558)
T1 sequence (P35558 1-622): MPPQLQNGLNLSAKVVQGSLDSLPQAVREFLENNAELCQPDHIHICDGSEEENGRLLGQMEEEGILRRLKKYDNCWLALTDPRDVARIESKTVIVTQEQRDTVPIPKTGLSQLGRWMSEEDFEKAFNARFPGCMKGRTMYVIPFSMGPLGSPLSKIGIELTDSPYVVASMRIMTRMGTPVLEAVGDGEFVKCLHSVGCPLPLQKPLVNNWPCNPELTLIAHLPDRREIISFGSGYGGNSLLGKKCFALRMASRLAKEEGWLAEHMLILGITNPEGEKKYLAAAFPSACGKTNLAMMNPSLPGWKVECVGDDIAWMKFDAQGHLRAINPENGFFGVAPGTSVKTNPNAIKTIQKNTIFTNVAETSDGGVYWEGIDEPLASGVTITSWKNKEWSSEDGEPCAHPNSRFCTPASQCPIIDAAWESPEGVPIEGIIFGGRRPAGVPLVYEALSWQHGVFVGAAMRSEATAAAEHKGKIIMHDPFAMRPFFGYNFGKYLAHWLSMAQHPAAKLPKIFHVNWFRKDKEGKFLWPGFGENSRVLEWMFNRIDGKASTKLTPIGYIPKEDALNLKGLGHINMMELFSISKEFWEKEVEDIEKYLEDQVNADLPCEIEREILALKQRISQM
Assay: PEPCK enzyme assay (coupled pyruvate kinase/lactate dehydrogenase, absorbance at 340)
Type: biochemical
Conditions: recombinant human cytosolic GST-PEPCK; GTP and OAA at 3 fold and 10 fold Km; final DMSO 10%; room temperature, twenty minutes; read-out: In vitro IC50
Description: E. coli cells expressing GST-PEPCK were suspended in 5 volumes of lysis buffer (50 mM Tris-hydroxymethyl aminomethyl (TRIS), 150 mM sodium chloride (NaCl), 10 mM ethylene-diametetraacetic acid (EDTA), 5 mM dithiothreitol(DTT), 1% Nonidet P-40, pH 7.4) in the presence of protease inhibitors, incubated with lysozyme at 200 micrograms/ml for 30 min. at room temperature, and sonicated 4×30 seconds at 4 degrees C. After centrifugation at 12,000×g for 20 min. to remove insoluble material, the supernatant was loaded onto glutathione Sepharose (Pharmacia), washed with lysis buffer followed by washing with lysis buffer in the absence of NP-40. GST-PEPCK was eluted with the same buffer containing 20 mM glutathione. The eluted protein was concentrated and dialyzed against 25 mM Hepes(N-[2-hydroxyethyl]piperazine-N′[2-ethanesulfonic acid), 150 mM NaCl, 2.5 mM EDTA, 5 mM DTT, 30% glycerol, pH 7.4, and stored at −20 ° C.
The inhibitory effect of the compounds of the present invention on PEPCK enzymatic activity was determined using recombinant human cytosolic PEPCK, expressed and purified from E.coli as a GST-fusion. Guanosine triphosphate (GTP) and manganese dependent PEPCK enzyme activity catalyzed the decarboxylation of oxalacetate leading to the formation of guanosine diphosphate (GDP) and phosphoenol pyruvate (PEP). This reaction is coupled to pyruvate kinase and lactate dehydrogenase catalyzed reactions and the overall reaction rate determined by measuring the change in absorbance at 340 nm (Chang, H. C. and Lane M. D., J. Biol.Chem. 241:2413–2420, 1966). The following modifications were made to the protocol: 2.5 μg of recombinant, human cytosolic glutathione-S-transferase (GST)-PEPCK was added to a reaction mixture at room temperature which contained 0.3 mM GTP, 0.3 mM oxaloacetate (OAA), 3 mM magnesium chloride (MgCl2), 0.075 mM manganese chloride (MnCl2), 30 mM potassium phosphates (KPO4), pH 7.6, 1 mM dithiothreitol (DTT), 0.2 mM adenosine diphosphate (ADP), 1 mM nicotinamide adenine dinucleotide, reduced form (NADH), 0.9 Units/ml each of pyruvate kinase and lactate dehydrogenase and 1 mg/ml bovine serum albumin (BSA). Test compounds were added such that final concentration of DMSO was 10%. Reactions were run for twenty minutes.
Km values for GTP and OAA were determined according to Michelis-Menton conditions as described in Cornish-Bowden (Fundamentals of Enzyme Kinetics, 1995) in essentially the coupled assay conditions described above. […] Test compounds were added to reactions over a range of concentrations and IC50's were calculated from plots of inhibitor concentration versus enzyme rate. This method of determination of IC50 values is equally applicable to calculations based on PEPCK cellular assay.
The in vitro biological activity of several representative preferred compounds of the present invention in the foregoing PEPCK enzymatic assay is presented in Table 1.

SMILES	IC50
CCN(C(=O)c1c(C)nn(C)c1C)c1ccc(Cc2nc3c([nH]2)c(=O)n(Cc2ccccc2F)c(=O)n3CC2CC2)cc1 [Example 117, 1,3,5-Trimethyl-1H-pyrazole-4-carboxylic acid {4-[3-cyclopropylmethyl-1-(2-fluorobenzyl)-2,6-dioxo-2,3,6,7-tetrahydro-1H-purin-8-ylmethyl]-phenyl}-ethyl-amide]	190 nM
Cc1ccc(C(=O)N(C)c2ccc(Cc3nc4c([nH]3)c(=O)n(Cc3ccccc3F)c(=O)n4CC3CCC3)cc2)cn1 [Example 88, N-{4-[3-Cyclobutylmethyl-1-(2-fluorobenzyl)-2,6-dioxo-2,3,6,7-tetrahydro-1H-purin-8-ylmethyl]-phenyl}-6,N-dimethyl-nicotinamide]	340 nM
CN(C(=O)c1ccc(C#N)nc1)c1ccc(Cc2nc3c([nH]2)c(=O)n(Cc2ccccc2F)c(=O)n3CC2CC2)cc1 [Example 92, 6-Cyano-N-{4-[3-cyclopropylmethyl-1-(2-fluorobenzyl)-2,6-dioxo-2,3,6,7-tetrahydro-1H-purin-8-ylmethyl]-phenyl}-N-methyl-nicotinamide]	440 nM
CN(C(=O)c1ccc(N)nc1)c1ccc(Cc2nc3c([nH]2)c(=O)n(Cc2ccccc2F)c(=O)n3CC2CC2)cc1 [Example 94, 6-Amino-N-{4-[3-cyclopropylmethyl-1-(2-fluorobenzyl)-2,6-dioxo-2,3,6,7-tetrahydro-1H-purin-8-ylmethyl]-phenyl}-N-methyl-nicotinamide]	340 nM
CN(C(=O)Cc1cccnc1)c1ccc(Cc2nc3c([nH]2)c(=O)n(Cc2ccccc2F)c(=O)n3CC2CC2)cc1 [Example 91, N-{4-[3-cyclopropylmethyl-1-(2-fluorobenzyl)-2,6-dioxo-2,3,6,7-tetrahydro-1H-purin-8-ylmethyl]-phenyl}-N-methyl-2-pyridin-3-yl-acetamide]	410 nM
Cc1nn(C)c(Cl)c1C(=O)N(C)c1ccc(Cc2nc3c([nH]2)c(=O)n(Cc2ccccc2F)c(=O)n3CC2CC2)cc1 [Example 104, 3-Chloro-1,5-dimethyl-1H-pyrazole-4-carboxylic acid {4-[3-cyclopropylmethyl-1-(2-fluorobenzyl)-2,6-dioxo-2,3,6,7-tetrahydro-1H-purin-8-ylmethyl]-phenyl}-methyl-amide]	280 nM
Cc1nocc1C(=O)N(C)c1ccc(Cc2nc3c([nH]2)c(=O)n(Cc2ccccc2F)c(=O)n3CC2CC2)cc1 [Example 109, 3-Methyl-isoxazole-4-carboxylic acid {4-[3-cyclopropylmethyl-1-(2-fluorobenzyl)-2,6-dioxo-2,3,6,7-tetrahydro-1H-purin-8-ylmethyl]-phenyl}-methyl-amide]	570 nM
CC(C)N(C(=O)Cc1cccnc1)c1ccc(Cc2nc3c([nH]2)c(=O)n(Cc2ccccc2F)c(=O)n3CC2CC2)cc1 [Example 120, N-{4-[3-Cyclopropylmethyl-1-(2-fluorobenzyl)-2,6-dioxo-2,3,6,7-tetrahydro-1H-purin-8-ylmethyl]-phenyl}-N-isopropyl-2-pyridin-3-yl-acetamide]	400 nM
CN(C(=O)c1sccc1C(N)=O)c1ccc(Cc2nc3c([nH]2)c(=O)n(Cc2ccccc2F)c(=O)n3CC2CC2)cc1 [Example 115, Thiophene-2,3-dicarboxylic acid 3-amide 2-({4-[3-cyclopropylmethyl-1-(2-fluorobenzyl)-2,6-dioxo-2,3,6,7-tetrahydro-1H-purin-8-ylmethyl]-phenyl}-methyl-amide)]	930 nM
Cc1nnsc1C(=O)N(C)c1ccc(Cc2nc3c([nH]2)c(=O)n(Cc2ccccc2F)c(=O)n3CC2CC2)cc1 [Example 108, 4-Methyl-[1,2,3]thiadiazole-5-carboxylic acid {4-[3-cyclopropylmethyl-1-(2-fluorobenzyl)-2,6-dioxo-2,3,6,7-tetrahydro-1H-purin-8-ylmethyl]-phenyl}-methyl-amide]	550 nM
CC(=O)Nc1ccc(Cc2nc3c([nH]2)c(=O)n(Cc2ccccc2F)c(=O)n3CC2CC2)cc1 [Example 42, N-{4-[3-Cyclopropylmethyl-1-(2-fluorobenzyl)-2,6-dioxo-2,3,6,7-tetrahydro-1H-purin-8-ylmethyl]-phenyl}-acetamide]	930 nM
Cc1cncc(C(=O)N(C)c2ccc(Cc3nc4c([nH]3)c(=O)n(Cc3ccccc3F)c(=O)n4CC3CC3)cc2)c1 [Example 85, N-{4-[3-cyclopropylmethyl-1-(2-fluorobenzyl)-2,6-dioxo-2,3,6,7-tetrahydro-1H-purin-8-ylmethyl]-phenyl}-5,N-dimethyl-nicotinamide]	400 nM
Cc1nn(C)c(C)c1C(=O)C(=O)N(C)c1ccc(Cc2nc3c([nH]2)c(=O)n(Cc2ccccc2F)c(=O)n3CC2CC2)cc1 [Example 103, N-{4-[3-Cyclopropylmethyl-1-(2-fluorobenzyl)-2,6-dioxo-2,3,6,7-tetrahydro-1H-purin-8-ylmethyl]-phenyl}-N-methyl-2-oxo-2-(1,3,5-trimethyl-1H-pyrazol-4-yl)-acetamide]	250 nM
Cc1ncccc1C(=O)N(C)c1ccc(Cc2nc3c([nH]2)c(=O)n(Cc2ccccc2F)c(=O)n3CC2CC2)cc1 [Example 95, N-{4-[3-Cyclopropylmethyl-1-(2-fluorobenzyl)-2,6-dioxo-2,3,6,7-tetrahydro-1H-purin-8-ylmethyl]-phenyl}-2,N-dimethyl-nicotinamide]	370 nM
CCCCN(C(=O)c1ccc(C)nc1)c1ccc(Cc2nc3c([nH]2)c(=O)n(Cc2ccccc2F)c(=O)n3CCCC)cc1 [Example 118, N-Butyl-N-{4-[3-butyl-1-(2-fluorobenzyl)-2,6-dioxo-2,3,6,7-tetrahydro-1H-purin-8-ylmethyl]-phenyl}-6-methyl-nicotinamide]	560 nM
COc1ccc(C(=O)N(C)c2ccc(Cc3nc4c([nH]3)c(=O)n(Cc3ccccc3F)c(=O)n4CC3CC3)cc2)c(OC)n1 [Example 90, N-{4-[3-cyclopropylmethyl-1-(2-fluorobenzyl)-2,6-dioxo-2,3,6,7-tetrahydro-1H-purin-8-ylmethyl]-phenyl}-2,6-dimethoxy-N-methyl-nicotinamide]	340 nM
CN(C(=O)c1csnn1)c1ccc(Cc2nc3c([nH]2)c(=O)n(Cc2ccccc2F)c(=O)n3CC2CC2)cc1 [Example 111, [1,2,3]Thiadiazole-4-carboxylic acid {4-[3-cyclopropylmethyl-1-(2-fluorobenzyl)-2,6-dioxo-2,3,6,7-tetrahydro-1H-purin-8-ylmethyl]-phenyl}-methyl-amide]	660 nM
CN(C(=O)c1cccnc1N)c1ccc(Cc2nc3c([nH]2)c(=O)n(Cc2ccccc2F)c(=O)n3CC2CC2)cc1 [Example 93, 2-Amino-N-{4-[3-cyclopropylmethyl-1-(2-fluorobenzyl)-2,6-dioxo-2,3,6,7-tetrahydro-1H-purin-8-ylmethyl]-phenyl}-N-methyl-nicotinamide]	280 nM

System: not given
Assay: not given
Conditions: not given

SMILES	melting point
CCCCn1c(=O)n(Cc2ccccc2)c(=O)c2[nH]c(Cc3ccc(N4C(=O)CCC4=O)cc3)nc21 [Example 65, 1-Benzyl-3-butyl-8-[4-(2,5-dioxo-pyrrolidin-1-yl)-benzyl]-3,7-dihydro-purine-2,6-dione]	208 to 212 °C
